Assay results from publication PMC5925831, “Enhancement of the catalytic activity of Isopentenyl diphosphate isomerase (IDI) from Saccharomyces cerevisiae through random and site-directed mutagenesis” (Microbial Cell Factories, 2018).

What was measured:
[1] = molecular target: T1, IDI (isopentenyl diphosphate isomerase from Saccharomyces cerevisiae) (Saccharomyces cerevisiae, UniProt P15496); conditions: 50 mM MOPS, 20 mM MgCl2, 5% glycerol, pH 7.5, 30 °C (activity assay); substrate range printed as 1–1000 mmol/L
T1 construct: gene IDI1
T1 sequence (P15496 2-288): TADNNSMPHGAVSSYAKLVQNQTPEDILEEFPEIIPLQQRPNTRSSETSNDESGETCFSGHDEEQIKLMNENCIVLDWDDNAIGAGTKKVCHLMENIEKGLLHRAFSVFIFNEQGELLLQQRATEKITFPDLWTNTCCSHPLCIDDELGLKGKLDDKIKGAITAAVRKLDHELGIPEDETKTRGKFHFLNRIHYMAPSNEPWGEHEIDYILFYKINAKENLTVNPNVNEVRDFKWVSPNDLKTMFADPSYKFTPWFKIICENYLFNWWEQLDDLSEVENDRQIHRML
Description: (§1) GC of isoprene released from DMAPP by acid and heat; double-reciprocal plot on IDI (isopentenyl diphosphate isomerase from Saccharomyces cerevisiae)

[2] = molecular target: T2, IDI (isopentenyl diphosphate isomerase from Saccharomyces cerevisiae) (Saccharomyces cerevisiae, UniProt P15496, Y195F/W256C, form not given); conditions: 50 mM MOPS, 20 mM MgCl2, 5% glycerol, pH 7.5, 30 °C (activity assay); substrate range printed as 1–1000 mmol/L
T2 construct: gene IDI1
T2 sequence (P15496 2-288 Y195F/W256C, form open): as the sequence (P15496 2-288) above, with Y194F, W255C counted along it
Description: as §1

Km [1]: 41.5 ± 0.39 µM
Km [2]: 37.6 ± 0.17 µM
SMILES: C=C(C)CCO[P@@](=O)(O)OP(=O)(O)O [isopentenylpyrophosphate]
